# Assay results reported in patent US20260200939A1, “MOLECULAR GLUE DEGRADER COMPOUNDS AND USES THEREOF” (Novartis AG, priority 2022, published 2026).
# Key:
# Recombinant RNF126 = target: T1, Recombinant RNF126 (Homo sapiens, UniProt Q9BV68); test: RNF126 Binding Assay, gel-based ABPP
# T1 construct: FLAG (C); host or cells: HEK293T
# Description: RNF126 mammalian expression plasmid with a C-terminal FLAG tag was purchased from Origene (Origene Technologies Inc., RC204986). The plasmid was transformed into NEB 5-alpha Competent E. coli (DH5) cells (NEB product no. C2987H). The following day, a single transformed colony was used to inoculate 50 ml of nutrient rich LB medium containing kanamycin (50 μg/ml) and was incubated at 37° C. overnight, with agitation (250 rpm). A Miniprep (Qiagen) kit was used to isolate the plasmid before sequence verification with appropriate primers.
# HEK293T cells were grown to 30-50% confluency in DMEM supplemented with 10% FBS (Corning) and maintained at 37° C. with 5% CO2. Immediately before transfection, media was replaced with DMEM containing 5% FBS. Each plate was transfected with 24 μg of overexpression plasmid with 24 μL Lipofectamine 3000 (Invitrogen) in Opti-MEM. After 48 h cells were collected in PBS, lysed by sonication, and batch bound with anti-DYKDDDDK resin (GenScript, L00432) for 2 hours. Lysate and resin were washed with PBS and eluted with 133.33 μg/ml 3×FLAG peptide (ApexBio, A6001) in PBS. Five elutions were performed for 15 minutes each. Elutions were concentrated and the protein was stored in PBS. Concentration and purity was determined using the BCA assay and western blotting.
# Recombinant RNF126 ([…]) was pre-treated with either DMSO vehicle or covalent ligand at 37° C. for 30 min in 25 μL of PBS, and subsequently treated with of IA-Rhodamine (concentrations designated in figure legends) (Setareh Biotech) at room temperature for 1 h in the dark. The reaction was stopped by addition of 4×reducing Laemmli SDS sample loading buffer (Alfa Aesar). After boiling at 95° C. for 5 min, the samples were separated on precast 4-20% Criterion TGX gels (Bio-Rad). Probe-labeled proteins were analyzed by in-gel fluorescence using a ChemiDoc MP (Bio-Rad).
# CDK4 = target: T2, CDK4 (Homo sapiens, UniProt P11802); test: CDK4 Degradation Assay, Western blotting; type: cell-based
# T2 construct: endogenous in cells; host or cells: C33A
# Description: (§1) C33A cells were purchased from American Type Culture Collection (ATCC) and were cultured in Dulbecco's Modified Eagle Medium (DMEM) containing 10% (v/v) fetal bovine serum (FBS) and maintained at 37° C. with 5% CO2. 22RV1 cells were purchased from the ATCC and were cultured in RPMI-1640 Medium containing 10% (v/v) FBS and maintained at 37° C. with 5% CO2. HEK293T cells were obtained from the UC Berkeley Cell Culture Facility and were cultured in DMEM containing 10% (v/v) FBS and maintained at 37° C. with 5% CO2. K562 cells were obtained from the UC Berkeley Cell Culture Facility and were cultured in Iscove's Modified Dulbecco's Medium (IMDM) containing 10% (v/v) FBS and maintained at 37° C. with 5% CO2. MV-4-11 cells were obtained from the ATCC and were cultured in IMDM containing 10% (v/v) FBS and maintained at 37° C. with 5% CO2. A549 cells were obtained from the ATCC and were cultured in F-12K Medium containing 10% (v/v) FBS and maintained at 37° C. with 5% CO2. Mino cells were obtained from the ATCC and were cultured in RPMI-1640 Medium containing 10% (v/v) FBS and maintained at 37° C. with 5% CO2. LNCaP cells were obtained from the ATCC and were cultured in RPMI-1640 Medium containing 10% (v/v) FBS and maintained at 37° C. with 5% CO2. Unless otherwise specified, all cell culture materials were purchased from Gibco. It is not known whether HEK293T cells are from male or female origin.
# (§2) Cells were washed twice with cold PBS, scraped, and pelleted by centrifugation (700 g, 5 min, 4° C.). Pellets were resuspended in PBS, sonicated, clarified by centrifugation (12,000 g, 10 min, 4° C.), and lysate was transferred to new low-adhesion microcentrifuge tubes. Proteome concentrations were determined using BCA assay and lysate was diluted to appropriate working concentrations.
# (§3) Proteins were resolved by SDS/PAGE and transferred to nitrocellulose membranes using the Trans-Blot Turbo transfer system (Bio-Rad). Membranes were blocked with 5% BSA in Tris-buffered saline containing Tween 20 (TBS-T) solution for 30 min at RT, washed in TBS-T, and probed with primary antibody diluted in recommended diluent per manufacturer overnight at 4° C. After 3 washes with TBS-T, the membranes were incubated in the dark with IR680- or IR800-conjugated secondary antibodies at 1:10,000 dilution in 5% BSA in TBS-T at RT for 1 h. After 3 additional washes with TBST, blots were visualized using an Odyssey Li-Cor fluorescent scanner. The membranes were stripped using ReBlot Plus Strong Antibody Stripping Solution (EMD Millipore) when additional primary antibody incubations were performed. Antibodies used in this study were CDK4 (Abcam ab108357), Vinculin (Abcam ab129002), GAPDH (Cell Signaling Technology 14C10), RNF126 (Santa Cruz Biotechnology sc-376005), BRD4 (Abcam ab128874), Beta Actin (Cell Signaling Technology 13E5), PDE5 (Abcam ab259945), AR-V7 (Abcam ab273500), c-Abl (Santa Cruz Biotechnology sc-23), SMARCA2 (Abcam ab240648), LRRK2 (Abcam ab133474), BTK (Cell Signaling Technology D3H5), Androgen Receptor (Abcam ab133273).
# Androgen Receptor = Androgen Receptor Degradation assay, Western blotting; type: cell-based
# Description: as §1, §2, §3
# T1 sequence (Q9BV68 whole entry): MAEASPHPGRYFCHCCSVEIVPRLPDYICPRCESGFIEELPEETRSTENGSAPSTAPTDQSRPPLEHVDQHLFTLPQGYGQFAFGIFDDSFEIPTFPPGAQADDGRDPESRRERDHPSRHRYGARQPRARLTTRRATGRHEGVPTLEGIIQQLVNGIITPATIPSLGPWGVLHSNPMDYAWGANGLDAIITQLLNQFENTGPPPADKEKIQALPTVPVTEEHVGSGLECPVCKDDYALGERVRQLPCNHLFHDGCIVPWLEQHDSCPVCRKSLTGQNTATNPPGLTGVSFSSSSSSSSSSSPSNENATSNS
Structure (SMILES),DC50 (CDK4),other results
COc1ccc(C(=O)/C=C/C(=O)N2CCN(c3ccc(Nc4ncc5c(C)c(C(C)=O)c(=O)n(C6CCCC6)c5n4)nc3)CC2)cc1 [Compound 136],,"binding to RNF126 (gel-based ABPP), in words (Recombinant RNF126): maintained binding to RNF126; CDK4 degradation, in words (CDK4; C33A cells, immunoblot): capable to degrading CDK4"
"COc1ccc(C(=O)/C=C/C(=O)N[C@H]2C[C@H](NC(=O)CN3CCN(c4ccc(C(=O)N[C@H]5CC[C@H](Oc6ccc(C#N)c(Cl)c6)CC5)nn4)CC3)C2)cc1 [Compound 200, N-((1r,4r)-4-(3-chloro-4-cyanophenoxy)cyclohexyl)-6-(4-(2-(((1r,3r)-3-((E)-4-(4-methoxyphenyl)-4-oxobut-2-enamido)cyclobutyl)amino)-2-oxoethyl)piperazin-1-yl)pyridazine-3-carboxamide]",,DC50 (Androgen Receptor): > 10 µM
"COc1ccc(C(=O)/C=C/C(=O)N[C@H]2C[C@H](NC(=O)CN3CCN(c4ccc(C(=O)N[C@H]5CC[C@H](Oc6ccc(C#N)c(Cl)c6)CC5)nn4)CC3)C2)c(F)c1 [Compound 201, N-((1r,4r)-4-(3-chloro-4-cyanophenoxy)cyclohexyl)-6-(4-(2-(((1r,3r)-3-((E)-4-(2-fluoro-4-methoxyphenyl)-4-oxobut-2-enamido)cyclobutyl)amino)-2-oxoethyl)piperazin-1-yl)pyridazine-3-carboxamide]",,DC50 (Androgen Receptor): > 10 µM
"COc1ccc(C(=O)/C=C/C(=O)N2CCN(c3ccc(Nc4ncc5cc(C(=O)N(C)C)n(C6CCCC6)c5n4)nc3)CC2)cc1F [Compound 266, (E)-7-cyclopentyl-2-((5-(4-(4-(3-fluoro-4-methoxyphenyl)-4-oxobut-2-enoyl)piperazin-1-yl)pyridin-2-yl)amino)-N,N-dimethyl-7H-pyrrolo[2,3-d]pyrimidine-6-carboxamide]",> 10 µM,
"CN(C)C(=O)c1cc2cnc(Nc3ccc(N4CCN(C(=O)/C=C/C(=O)c5ccc(C#N)cc5)CC4)cn3)nc2n1C1CCCC1 [Compound 267, (E)-2-((5-(4-(4-(4-cyanophenyl)-4-oxobut-2-enoyl)piperazin-1-yl)pyridin-2-yl)amino)-7-cyclopentyl-N,N-dimethyl-7H-pyrrolo[2,3-d]pyrimidine-6-carboxamide]",> 10 µM,
"COc1ccc(C(=O)/C=C/C(=O)N2CCN(c3ccc(Nc4ncc5cc(C(=O)N(C)C)n(C6CCCC6)c5n4)nc3)CC2)c(Cl)c1 [Compound 268, (E)-2-((5-(4-(4-(2-chloro-4-methoxyphenyl)-4-oxobut-2-enoyl)piperazin-1-yl)pyridin-2-yl)amino)-7-cyclopentyl-N,N-dimethyl-7H-pyrrolo[2,3-d]pyrimidine-6-carboxamide]",> 10 µM,
"COc1ccc(C(=O)/C=C/C(=O)N[C@H]2C[C@@H](Nc3ccc(Nc4ncc5cc(C(=O)N(C)C)n(C6CCCC6)c5n4)nc3)C2)cc1 [Compound 269, 7-cyclopentyl-2-((5-(((1s,3s)-3-((E)-4-(4-methoxyphenyl)-4-oxobut-2-enamido)cyclobutyl)amino)pyridin-2-yl)amino)-N,N-dimethyl-7H-pyrrolo[2,3-d]pyrimidine-6-carboxamide]",> 10 µM,
"COc1ccc(C(=O)/C=C/C(=O)N[C@H]2C[C@H](Nc3ccc(Nc4ncc5cc(C(=O)N(C)C)n(C6CCCC6)c5n4)nc3)C2)cc1 [Compound 270, 7-cyclopentyl-2-((5-(((1r,3r)-3-((E)-4-(4-methoxyphenyl)-4-oxobut-2-enamido)cyclobutyl)amino)pyridin-2-yl)amino)-N,N-dimethyl-7H-pyrrolo[2,3-d]pyrimidine-6-carboxamide]",> 10 µM,
"COc1ccc(C(=O)/C=C/C(=O)N2CCN(c3ccc(Nc4ncc5cc(C(=O)N(C)C)n(C6CCCC6)c5n4)nc3)[C@H](C)C2)cc1 [Compound 271, (R,E)-7-cyclopentyl-2-((5-(4-(4-(4-methoxyphenyl)-4-oxobut-2-enoyl)-2-methylpiperazin-1-yl)pyridin-2-yl)amino)-N,N-dimethyl-7H-pyrrolo[2,3-d]pyrimidine-6-carboxamide]",1 to 10 µM,
"COc1ccc(C(=O)/C=C/C(=O)N(C)CCN(C)c2ccc(Nc3ncc4cc(C(=O)N(C)C)n(C5CCCC5)c4n3)nc2)cc1 [Compound 272, (E)-7-cyclopentyl-2-((5-((2-(4-(4-methoxyphenyl)-N-methyl-4-oxobut-2-enamido)ethyl)(methyl)amino)pyridin-2-yl)amino)-N,N-dimethyl-7H-pyrrolo[2,3-d]pyrimidine-6-carboxamide]",> 10 µM,
"COc1ccc(C(=O)/C=C/C(=O)N2CCN(c3ccc(Nc4ncc5cc(C(=O)N(C)C)n(C6CCCC6)c5n4)nc3)C[C@H]2C)cc1 [Compound 273, (R,E)-7-cyclopentyl-2-((5-(4-(4-(4-methoxyphenyl)-4-oxobut-2-enoyl)-3-methylpiperazin-1-yl)pyridin-2-yl)amino)-N,N-dimethyl-7H-pyrrolo[2,3-d]pyrimidine-6-carboxamide]",1 to 10 µM,
"COc1ccc(C(=O)/C=C/C(=O)N2CCN(c3ccc(Nc4ncc5cc(C(=O)N(C)C)n(C6CCCC6)c5n4)nc3)[C@@H](C)C2)cc1 [Compound 274, (S,E)-7-cyclopenty1-2-((5-(4-(4-(4-methoxyphenyl)-4-oxobut-2-enoyl)-2-methylpiperazin-1-yl)pyridin-2-yl)amino)-N,N-dimethyl-7H-pyrrolo[2,3-d]pyrimidine-6-carboxamide]",1 to 10 µM,
"COc1ccc(C(=O)/C=C/C(=O)N2CCCN(c3ccc(Nc4ncc5cc(C(=O)N(C)C)n(C6CCCC6)c5n4)nc3)CC2)cc1 [Compound 275, (E)-7-cyclopentyl-2-((5-(4-(4-(4-methoxyphenyl)-4-oxobut-2-enoyl)-1,4-diazepan-1-yl)pyridin-2-yl)amino)-N,N-dimethy1-7H-pyrrolo[2,3-d]pyrimidine-6-carboxamide]",1 to 10 µM,
"COc1ccc(C(=O)/C=C/C(=O)N2CCN(c3ccc(Nc4ncc5cc(C(=O)N(C)C)n(C6CCCC6)c5n4)nc3)C[C@@H]2C)cc1 [Compound 276, (S,E)-7-cyclopentyl-2-((5-(4-(4-(4-methoxyphenyl)-4-oxobut-2-enoyl)-3-methylpiperazin-1-yl)pyridin-2-yl)amino)-N,N-dimethyl-7H-pyrrolo[2,3-d]pyrimidine-6-carboxamide]",1 to 10 µM,
"CN(C)C(=O)c1cc2cnc(Nc3ccc(N4CCN(C(=O)/C=C/C(=O)c5ccc(Br)cc5)CC4)cn3)nc2n1C1CCCC1 [Compound 284, (E)-2-((5-(4-(4-(4-bromophenyl)-4-oxobut-2-enoyl)piperazin-1-yl)pyridin-2-yl)amino)-7-cyclopentyl-N,N-dimethyl-7H-pyrrolo[2,3-d]pyrimidine-6-carboxamide]",> 10 µM,
